Measurements taken from US9688684B2, “Substituted tetrazolo[1,5-a]pyrazines as ROR-gamma inhibitors” (Merck Patent GmbH, priority 2013, dated 2017).

Legend:
[1] = biological target: human RORγ ligand binding domain (GST-hRORγ-LBD) (Homo sapiens (Human), UniProt P51449); assay: TR-FRET assay (biochemical cofactor interaction assay, GST-hRORγ-LBD / TRAP220 peptide)
Description: RORγ is an orphan member of the nuclear receptor (NR) family displaying constitutive activity. The activity of nuclear receptors can be modulated by ligand-induced cofactor protein interactions. For example, agonist binding leads to recruitment of coactivator protein, and antagonist binding either blocks coactivator interaction or facilitates the recruitment of corepressors. […] The conformational change induced by ligand binding influences interactions with LXXLL motif peptides.
RORγ (t) is a thymus-specific isoform of RORγ which is widely expressed. It shares the same ligand binding domain (LBD) sequence with RORγ. Thus, a screen using the LBD will yield antagonists targeting both RORγ and RORγt.
In order to identify compounds which block activity of the human nuclear receptor Retinoid-related Orphan Receptor gamma (RORγ) a biochemical cofactor interaction assay based on the TR-FRET principle is performed. […] The ligand-binding domain (LBD) of RORγ is expressed as fusion protein with GST in […] cells using the vector pDEST15. Cells are lysed by lysozyme-treatment and sonication, and the fusion proteins purified over glutathione sepharose (Pharmacia) according to the manufacturers instructions. The strong constitutive interaction is disrupted upon binding of functional antagonists. The strength of the interaction is monitored by TR-FRET between streptavidine APC interacting with the biotinylated peptide and Europium-labelled Anti-GST.

[2] = biological target: RORγ Ligand binding domain (RORγ-LBD, aa 238-497, NP_001001523) (Homo sapiens (Human), UniProt P51449); assay: ROR γ GAI4 Reporter Gene Assay (Mammalian one-hybrid, M1H) in 293T cells; format: cell-based
Sequence of RORγ Ligand binding domain (RORγ-LBD, aa 238-497, NP_001001523) (P51449 259-518): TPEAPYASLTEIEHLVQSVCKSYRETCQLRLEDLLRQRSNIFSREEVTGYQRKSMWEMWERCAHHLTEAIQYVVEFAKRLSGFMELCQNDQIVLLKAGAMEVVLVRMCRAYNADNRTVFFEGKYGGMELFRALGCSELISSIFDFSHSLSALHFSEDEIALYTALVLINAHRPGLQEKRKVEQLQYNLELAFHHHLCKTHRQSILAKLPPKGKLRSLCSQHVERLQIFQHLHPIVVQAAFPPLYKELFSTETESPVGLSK
Description: ROR γ GAI4 Reporter Gene Assay
A Mammalian one-hybrid system is used to perform a cell-based functional transactivation assay for detecting RORγ activity modulators.
The Mammalian-1-Hybrid is derived from the Mammalian-2-Hybrid setup. Whereas in the latter, the binding partners are defined in their role as interaction, transactivation and DNA-binding components, the Mammalian-1-Hybrid makes use of the fact that all mammalian cell types express a set of Nuclear Receptors and their associated cofactors. […] A Gal4 minimal promoter driven luciferase construct (pFR-Luc from Stratagene, containing a synthetic promoter with five tandem repeats of the yeast GAL4 binding sites controlling expression of the Photinus pyralis luciferase gene) is used as reporter. The Gal4-DBD-NR-LBD fusion protein by itself cannot initiate transcription and is dependent on the presence of cofactors present in the cellular system used.
In order to rule out cytotoxic and unspecific transcriptional compound effects a transfection with a firefly luciferase driven by the constitutive CMV promoter is performed in parallel.
After transfection 18 μl complete MEM medium containing 3% charcoal-dextran treated FBS is added as well as 4 μl test compounds (DMSO stocks prediluted in OptiMem (Invitrogen)) followed by incubation for 16-24 h at 37° C., 5% CO2 and 90% rH.
Firefly luciferase activity is measured using the Promega ONE-Glo™ Luciferase Assay System.

Sequence of human RORγ ligand binding domain (GST-hRORγ-LBD) (P51449 269-508): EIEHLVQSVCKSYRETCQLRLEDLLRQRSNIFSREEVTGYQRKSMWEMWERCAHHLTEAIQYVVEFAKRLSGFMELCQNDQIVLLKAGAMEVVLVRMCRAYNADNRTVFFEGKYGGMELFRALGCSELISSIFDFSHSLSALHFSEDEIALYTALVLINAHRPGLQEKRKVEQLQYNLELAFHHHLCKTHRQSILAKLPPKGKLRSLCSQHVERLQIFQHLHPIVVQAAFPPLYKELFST

Compound | IC50 [1] | IC50 [2]
Fc1ccc(CN2CCn3nnnc3C2c2ccc3c(c2)OCCO3)cc1 (stereo not shown) [Compound 133, 8-(2,3-Dihydro-benzo[1,4]dioxin-6-yl)-7-(4-fluoro-benzyl)-5,6,7,8-tetrahydro-tetrazolo[1,5-a]pyrazine] | 0.99 to 9.9 µM | 9.9 to 40 µM
Cc1cccc(CN2CCn3nnnc3C2c2ccc(OC(C)C)cc2)c1 (stereo not shown) [Compound 99, 8-(4-Isopropoxy-phenyl)-7-(3-methyl-benzyl)-5,6,7,8-tetrahydro-tetrazolo[1,5-a]pyrazine] | 0.01 to 0.99 µM | 0.99 to 9.9 µM
Cc1cccc(CN2CCn3nnnc3C2c2cccc(F)c2)c1 (stereo not shown) [Compound 116, 8-(3-Fluoro-phenyl)-7-(3-methyl-benzyl)-5,6,7,8-tetrahydro-tetrazolo[1,5-a]pyrazine] | 0.99 to 9.9 µM | 0.99 to 9.9 µM
Cc1cccc(CN2CCn3nnnc3C2c2ccc(F)cc2)c1 (racemic) [Compound 93, 8-(4-Fluoro-phenyl)-7-(3-methyl-benzyl)-5,6,7,8-tetrahydro-tetrazolo[1,5-a]pyrazine] | 0.01 to 0.99 µM | 9.9 to 40 µM
CC(C)c1nn(-c2ccccc2)cc1C1c2nnnn2CCN1Cc1cnn2ccccc12 (stereo not shown) [Compound 154, 8-(3-Isopropyl-1-phenyl-1H-pyrazol-4-yl)-7-pyrazolo[1,5-a]pyridin-3-ylmethyl-5,6,7,8-tetrahydro-tetrazolo[1,5-a]pyrazine] | 9.9 to 40 µM | 0.99 to 9.9 µM
Fc1ccc(C2c3nnnn3CCN2Cc2cccs2)cc1 (stereo not shown) [Compound 125, 8-(4-Fluoro-phenyl)-7-thiophen-2-ylmethyl-5,6,7,8-tetrahydro-tetrazolo[1,5-a]pyrazine] | 0.99 to 9.9 µM | 9.9 to 40 µM
Cc1c(CN2CCn3nnnc3C2c2cn(-c3ccccc3)nc2C(C)C)cnn1C (stereo not shown) [Compound 156, 7-(1,5-Dimethyl-1H-pyrazol-4-ylmethyl)-8-(3-isopropyl-1-phenyl-1H-pyrazol-4-yl)-5,6,7,8-tetrahydro-tetrazolo[1,5-a]pyrazine] | 9.9 to 40 µM | 9.9 to 40 µM
CC(C)c1nn(-c2ccccc2)cc1C1c2nnnn2CCN1Cc1cccc(F)c1F (stereo not shown) [Compound 63, 7-(2,3-Difluoro-benzyl)-8-(3-isopropyl-1-phenyl-1H-pyrazol-4-yl)-5,6,7,8-tetrahydro-tetrazolo[1,5-a]pyrazine] | 9.9 to 40 µM | 0.01 to 0.99 µM
CC(C)c1nn(-c2ccccc2)cc1C1c2nnnn2CCN1Cc1cccs1 (single isomer, unassigned) [Compound 61-a, 8-(3-Isopropyl-1-phenyl-1H-pyrazol-4-yl)-7-thiophen-2-ylmethyl-5,6,7,8-tetrahydro-tetrazolo[1,5-a]pyrazine] | 0.01 to 0.99 µM | 0.01 to 0.99 µM
CC(C)c1nn(-c2ccccc2)cc1C1c2nnnn2CCN1Cc1cccs1 (single isomer, unassigned) [Compound 61-b, 8-(3-Isopropyl-1-phenyl-1H-pyrazol-4-yl)-7-thiophen-2-ylmethyl-5,6,7,8-tetrahydro-tetrazolo[1,5-a]pyrazine] | 9.9 to 40 µM | 0.99 to 9.9 µM
CC(C)c1nn(-c2ccccc2)cc1C1c2nnnn2CCN1C1CCCCC1 (stereo not shown) [Compound 114, 7-Cyclohexyl-8-(3-isopropyl-1-phenyl-1H-pyrazol-4-yl)-5,6,7,8-tetrahydro-tetrazolo[1,5-a]pyrazine] | 0.99 to 9.9 µM | 9.9 to 40 µM
Fc1cc(F)cc(C2c3nnnn3CCN2Cc2cccc(Br)c2)c1 (stereo not shown) [Compound 107, 7-(3-Bromo-benzyl)-8-(3,5-difluoro-phenyl)-5,6,7,8-tetrahydro-tetrazolo[1,5-a]pyrazine] | 0.01 to 0.99 µM | 9.9 to 40 µM
Cc1cccc(C2c3nnnn3CCN2Cc2ccccc2)c1 (stereo not shown) [Compound 100, 7-Benzyl-8-m-tolyl-5,6,7,8-tetrahydro-tetrazolo[1,5-a]pyrazine] | 0.01 to 0.99 µM | 9.9 to 40 µM
Fc1ccc(CN2CCn3nnnc3C2c2cccc(F)c2)cc1 (racemic) [Compound 91, 7-(4-Fluoro-benzyl)-8-(3-fluoro-phenyl)-5,6,7,8-tetrahydro-tetrazolo[1,5-a]pyrazine] | 0.99 to 9.9 µM | 0.01 to 0.99 µM
